The text below walks through data of patent US20260048036A1, “CRYSTALLINE FORMS OF A GLUCOSYLCERAMIDE SYNTHASE INHIBITOR AND USES THEREOF” (ACELINK THERAPEUTICS, INC., priority 2022, published 2026).

The target in data set [1] is T1, Glucosylceramide synthase (GCS) (Homo sapiens, UniProt Q16739).
T1 construct: The MDCK, K-562, and L6 cell lines all endogenously express GCS enzyme; host or cells: K-562 human leukemia cells, live
T1 sequence (Q16739 1-394): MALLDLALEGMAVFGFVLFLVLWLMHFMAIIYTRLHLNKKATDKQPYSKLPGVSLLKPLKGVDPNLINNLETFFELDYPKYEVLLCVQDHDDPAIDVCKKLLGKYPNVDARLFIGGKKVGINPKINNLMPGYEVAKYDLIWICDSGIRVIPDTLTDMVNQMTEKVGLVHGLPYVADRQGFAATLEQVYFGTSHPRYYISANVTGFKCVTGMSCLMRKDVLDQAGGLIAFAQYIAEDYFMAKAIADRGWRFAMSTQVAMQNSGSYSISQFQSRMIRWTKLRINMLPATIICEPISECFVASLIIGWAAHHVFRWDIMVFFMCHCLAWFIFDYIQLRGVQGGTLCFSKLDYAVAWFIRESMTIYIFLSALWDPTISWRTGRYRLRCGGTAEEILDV
In words: GCS cell-based assay with live K-562 cells. As to conditions: C6-NBD-glucosylceramide by LC-MS/MS. An excerpt: The reaction product, C6-NBD-glucosylceramide, could then be detected and quantified by LC-MS/MS. The inventors used this method to test and validate the effect of various GCS inhibitors on GCS enzyme activity from different species.
The GCS enzyme activity was detected by using the fluorescent substrate, C6-NBD-ceramide, and monitoring the formation of the fluorescent reaction product, C6-NBD-glucosylceramide. First, the inventors used cell lysate derived from a canine kidney cell line (MDCK, ATCC Cat #CCL-34™) as the source of GCS and tested the inhibitory activity of several control and test compounds.
The quantitative analysis of C6-NBD-glucosylceramide was performed on a Shimadzu ultra-fast liquid chromatography coupled with API 4000 mass spectrometer. Analyst 1.5 software packages were used to control the LC-MS/MS system, as well as for data acquisition and processing.
The C6-NBD-glucosylceramide reading was normalized first by dividing the peak area of C6-NBD-glucosylceramide with the peak area of the internal standard, and then the amount was calculated according to the standard curve generated in the same assay run. For the cell based assay results, the amount of C6-NBD-glucosylceramide was also normalized by the protein concentration of the cell samples. […]

Data set [2] can be described thus: Hygroscopicity by DVS at 25° C. In kind it is physicochemical.

Each structure is given as a SMILES string. Where two headings read alike, the source gives them in different places.

The IC50 is the concentration that gives 50% inhibition. A high value points to a need for much substance. The compound `O=C(N[C@H](CN1CCCC1)[C@H](O)c1ccc(OC2CC2)c(Cl)c1)/C(=N/O)c1ccc2cc(Cl)ccc2c1` [Crystalline Form A of Compound 1] came in with an IC50 in data set [1] of 6.15 nM. For the same compound, the “XRPD after DVS test” value in data set [2] is reported as “No form change”; in data set [2] (listed as Free form Crystalline Form A of Compound 1) it was “No form change”; in data set [2] (listed as free form Crystalline Form A of Compound 1) it was “no form change”. The “hygroscopicity (DVS)” value in data set [2] is on record as “slightly hygroscopic”. Besides, the “Desorp. (DVS)” value in data set [2] (0% RH) amounted to 0.02%; in data set [2] (10% RH) it was 0.04%; in data set [2] (20% RH), 0.05%; in data set [2] (30% RH), 0.06%; in data set [2] (40% RH), 0.09%. Besides, the “Sorp. (water uptake by DVS)” value in data set [2] (0% RH) is 0.02%; in data set [2] (10% RH) it was 0.03%; in data set [2] (20% RH), 0.04%; in data set [2] (30% RH), 0.05%; in data set [2] (40% RH), 0.06%; in data set [2] (50% RH), 0.09%. Besides, the “Sorp. (water uptake by DVS)” value in data set [2] (60% RH) is 0.12%; in data set [2] (70% RH) it was 0.14%; in data set [2] (80% RH), 0.22%; in data set [2] (90% RH), 0.39%. Besides, the “water uptake increased from 40% RH to 90% RH” value in data set [2] (DVS) is reported as “about 0.33%”.
